# Results published in PMC5727346 (International Journal for Parasitology: Drugs and Drug …, 2017).
# Target: triosephosphate isomerase from G. lamblia (GlTIM; dGlTIM) (Giardia duodenalis, UniProt P36186, C202A)
# Test: GDH-coupled TIM activity assay after […] h incubation at […] °C
# Type: biochemical
compound,measurement,value
"CCN(CC)C(=S)SSC(=S)N(CC)CC [disulfiram, 1,1′,1″,1‴-[disulfanediylbis(carbonothioylnitrilo)]tetraethane]",IC50,6.6 µM
